Tests used:
[1] = tested on: P. aeruginosa (ATCC 9027); assay: Dynamic Shake Flask (based on ASTM E 2149-01) on treated nonwoven; format: cell-based
Procedure: The test organisms are grown in 25 mL appropriate broth medium for about 24±2 hours at 37±2° C. in a wrist action shaker. The bacterial culture is then transferred by placing about 100 μL aliquot in 25 mL of broth and grown again for about 24±2 hours at 37±2° C. The organisms are then centrifuged and washed three times with phosphate buffered saline (PBS). The organisms are then suspended in PBS to obtain an inoculum of approximately 1×10^8 CFU/mL.
The test articles and control swatches are exposed to an ultraviolet light source for about 5-10 minutes per side before testing to assure that the swatches are sanitized prior to inoculation with the bacteria. The test materials are brought into contact with a known population of test bacteria from the inoculum for a specified period of time. A sample is then plated at the end of the exposure time to enumerate the surviving bacteria. The log10 reduction form the control material and the original population is calculated using the following formula: Log10 Control*−Log10 CFU/swatch Test Article=Log10 Reduction
[…] This buffer solution contains a chemical to de-activate or “neutralize” the antimicrobial agent to (a) stop the active agent from killing the organisms after the designated time period and (b) to prevent artifacts that may arise from exposing the microorganisms to the antimicrobial in solution rather than solely on the substrate. Because each chemical used as an antimicrobial agent is a little different (ie: cationic, nonionic, metal, etc), a different neutralizer was likely added in each case to shut off the antimicrobial at the desired end point of the experiment. […] The neutralizer employed may be selected from a list that is commonly used in the field. […] Testing Mat.

C. Albicans (ATCC 10231) = assay: as above; format: cell-based; details: Table 15, SMS

## Polyhexamethylene biguanide [PHMB]
[1]; Table 13, Meltblown, contact time 1 min
  Dynamic Shake Flask Log10 Reduction: 4 Log10
[1]; Table 13, Meltblown, contact time 5 min
  Dynamic Shake Flask Log10 Reduction: 4 Log10
[1]; Table 13, Meltblown, contact time 15 min
  Dynamic Shake Flask Log10 Reduction: 4 Log10
[1]; Table 13, SMS, contact time 1 min
  Dynamic Shake Flask Log10 Reduction: 4 Log10
[1]; Table 13, SMS, contact time 5 min
  Dynamic Shake Flask Log10 Reduction: 4 Log10
[1]; Table 13, SMS, contact time 15 min
  Dynamic Shake Flask Log10 Reduction: 4 Log10
[1]; Table 13, Spunbond, contact time 1 min
  Dynamic Shake Flask Log10 Reduction: 4 Log10
[1]; Table 13, Spunbond, contact time 5 min
  Dynamic Shake Flask Log10 Reduction: 4 Log10
[1]; Table 13, Spunbond, contact time 15 min
  Dynamic Shake Flask Log10 Reduction: 4 Log10
[1]; Table 18, Spunbond substrate, contact time 1 min
  Dynamic Shake Flask Log10 Reduction: 0.07 Log10
[1]; Table 18, Spunbond substrate, contact time 5 min
  Dynamic Shake Flask Log10 Reduction: 0.12 Log10
[1]; Table 18, Spunbond substrate, contact time 15 min
  Dynamic Shake Flask Log10 Reduction: 0.34 Log10
[1]; Table 20, SMS substrate, contact time 1 min
  Dynamic Shake Flask Log10 Reduction: 0.07 Log10
[1]; Table 20, SMS substrate, contact time 5 min
  Dynamic Shake Flask Log10 Reduction: 0.12 Log10
[1]; Table 20, SMS substrate, contact time 15 min
  Dynamic Shake Flask Log10 Reduction: 0.34 Log10
C. Albicans (ATCC 10231); contact time 1 min
  Dynamic Shake Flask Log10 Reduction: 1.28 Log10
C. Albicans (ATCC 10231); contact time 5 min
  Dynamic Shake Flask Log10 Reduction: 2.38 Log10
C. Albicans (ATCC 10231); contact time 15 min
  Dynamic Shake Flask Log10 Reduction: 3.48 Log10

From US20070048356A1, “Antimicrobial treatment of nonwoven materials for infection control” (priority 2005, published 2007)
